Test results from patent publication US4273765A, “Amino sugar derivatives containing trehalose” (Hoffmann-La Roche Inc., priority 1978, dated 1981).

Assays:
[1] = tested on: hyperglycemia induced by cooked rice starch; test: Inhibition of hyperglycemia induced by cooked rice starch, rats; type: in vivo; settings: p.o., dose causing after 20 minutes a 20 percent decrease of hyperglycemia, 2 g/kg cooked rice starch
Method: (§1) **ED20 is defined as the dose causing after 20 minutes a 20 percent
(§2) decrease of hyperglycemia induced by oral administration of 2 g/kg body
(§3) weight cooked rice starch.

E. coli CF41 = test: Antimicrobial spectrum, agar-dilution method; type: cell-based
E. coli NIHJ SMf = test: Antimicrobial spectrum, agar-dilution method; type: cell-based
[2] = tested on: Bordetella bronchiseptica Aichi 202; test: Antimicrobial spectrum, agar-dilution method; type: cell-based; settings: Bordetella bronchiseptica Aichi 202, agar-dilution
Shigella flexneri = test: Antimicrobial spectrum, agar-dilution method; type: cell-based
Titration (in water) = type: physicochemical
[3] = tested on: Staphylococcus aureus MS3937; test: Antimicrobial spectrum, agar-dilution method; type: cell-based
[4] = tested on: hyperglycemia following an oral load of sucrose; test: Hyperglycemia following an oral load of sucrose; type: in vivo; settings: dose/kg 30.0 mg; 20 min. after 3.2 g sucrose/kg
Method: (§4) [Plasma Glucose and insulin 20 min. after carbohydrate ± Trestatin (1.
g wheat starch/kg or 3.2 g sucrose/kg)]

Proteus rettgeri = test: Antimicrobial spectrum, agar-dilution method; type: cell-based
[5] = target: T1, porcine pancreatic α-amylase (Sus scrofa, UniProt P00690); test: Porcine pancreatic α-amylase inhibitory activity (Bernfeld assay); type: biochemical; settings: IU = amount giving 50% inhibition of 2 units porcine pancreatic α-amylase, pH 6.9, 37° C.
T1 sequence (P00690 16-511): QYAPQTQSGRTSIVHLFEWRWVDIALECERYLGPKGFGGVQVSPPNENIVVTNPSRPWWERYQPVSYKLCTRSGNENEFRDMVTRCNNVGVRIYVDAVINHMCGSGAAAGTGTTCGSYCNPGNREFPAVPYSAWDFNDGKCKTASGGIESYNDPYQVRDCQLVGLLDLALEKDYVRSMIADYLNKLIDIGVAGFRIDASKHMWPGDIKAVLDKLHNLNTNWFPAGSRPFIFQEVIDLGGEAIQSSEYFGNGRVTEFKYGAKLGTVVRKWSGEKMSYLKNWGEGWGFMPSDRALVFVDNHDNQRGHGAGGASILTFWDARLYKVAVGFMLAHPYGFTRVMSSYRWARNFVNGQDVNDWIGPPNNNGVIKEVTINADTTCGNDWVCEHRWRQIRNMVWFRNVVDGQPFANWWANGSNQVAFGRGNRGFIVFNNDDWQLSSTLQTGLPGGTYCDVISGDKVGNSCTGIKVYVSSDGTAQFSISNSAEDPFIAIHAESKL
Method: 2 units* of porcine pancreatic α-amylase in 0.1 ml of 6.4 mM ammonium sulfate solution are added to 0.6 ml of 20 mM phosphate buffer (pH 6.9) containing 10 mM sodium chloride and different amounts of Trestatin. The mixture, after equilibration at 37° C. for 5 min. followed by the addition of 0.5 ml of 4% soluble starch solution, is incubated for 5 min. at 37° C. The reaction is terminated by the addition of 2 ml of dinitrosalicylic acid reagent prepared according to the method of P. Bernfeld. The mixture is heated on a boiling water bath for 5 min. and then diluted with 10 ml of water. Absorbance (A1) of the resulting colored solution is measured at 540 nm, and the inhibition of α-amylase activity can be calculated from the following equation: [formula] A0; absorbance without enzyme A2; absorbance without Trestatin
*1 unit of the α-amylase is the amount of enzyme which catalyzes under the above conditions without Trestatin the formation of reducing sugars equivalent to 1 μmol of maltose.
Each of said inhibitory activities was determined by the method mentioned above.

[6] = tested on: hyperglycemia (hyperinsulinemia) following an oral load of native starch; test: Hyperglycemia (hyperinsulinemia) following an oral load of native starch; type: in vivo; settings: 20 min. after wheat starch
Method: as §4
g wheat starch/kg or 3.2 g sucrose/kg)]

E. coli K-12 ML1630 = test: Antimicrobial spectrum, agar-dilution method; type: cell-based; settings: E. coli K-12 ML1630, agar-dilution
[7] = tested on: Mycobacterium smegmatis ATCC607; test: Antimicrobial spectrum, agar-dilution method; type: cell-based
E. coli NIHJ STf = test: Antimicrobial spectrum, agar-dilution method; type: cell-based
rats = test: Acute toxicity, oral, rats; settings: 500 mg/kg administered to rats orally (65-700 times the effective dosage)
[8] = tested on: Staphylococcus aureus FDA209P; test: Antimicrobial spectrum, agar-dilution method; type: cell-based
[9] = tested on: Klebsiella pneumoniae PCI602; test: Antimicrobial spectrum, agar-dilution method; type: cell-based
[10] = tested on: Proteus vulgaris OX19 ATCC6898; test: Antimicrobial spectrum, agar-dilution method; type: cell-based
[11] = tested on: Staphylococcus aureus MS9261; test: Antimicrobial spectrum, agar-dilution method; type: cell-based
Solubility in solvents = type: physicochemical
Description: (h) Solubility in solvents:

Candida albicans Yu1200 = test: Antimicrobial spectrum, agar-dilution method; type: cell-based
[12] = tested on: Salmonella typhimurium IFO12529; test: Antimicrobial spectrum, agar-dilution method; type: cell-based
[13] = tested on: Serratia marcescens IFO12648; test: Antimicrobial spectrum, agar-dilution method; type: cell-based
[14] = tested on: Pseudomonas aeruginosa P2; test: Antimicrobial spectrum, agar-dilution method; type: cell-based
Sarcina lutea ATCC 9341 = test: Antimicrobial spectrum, agar-dilution method; type: cell-based; settings: Sarcina lutea ATCC 9341, agar-dilution
[15] = tested on: Pseudomonas aeruginosa IFO12689; test: Antimicrobial spectrum, agar-dilution method; type: cell-based
Citrobacter = test: Antimicrobial spectrum, agar-dilution method; type: cell-based
E. coli NIHJ = test: Antimicrobial spectrum, agar-dilution method; type: cell-based
E. coli CF17 = test: Antimicrobial spectrum, agar-dilution method; type: cell-based
[16] = tested on: Bacillus subtilis PCI 219; test: Antimicrobial spectrum, agar-dilution method; type: cell-based; settings: Bacillus subtilis PCI 219, agar-dilution
[17] = tested on: Pseudomonas aeruginosa A3; test: Antimicrobial spectrum, agar-dilution method; type: cell-based
[18] = tested on: hyperglycemia induced by cooked rice starch; test: Inhibition of hyperglycemia induced by cooked rice starch, mice; type: in vivo; settings: p.o., dose causing after 20 minutes a 20 percent decrease of hyperglycemia, 2 g/kg cooked rice starch
Method: as §1, §2, §3

[19] = tested on: Staphylococcus aureus Smith; test: Antimicrobial spectrum, agar-dilution method; type: cell-based
Salmonella paratyphi B = settings: agar-dilution

C[C@H]1O[C@H](O[C@@H]2[C@H](O)[C@H](O)[C@@H](O[C@@H]3[C@H](O)[C@@H](O)[C@@H](O[C@@H]4[C@H](O)[C@H](O)[C@@H](O[C@H]5O[C@@H](CO)[C@H](O)[C@H](O)[C@H]5O)O[C@@H]4CO)O[C@@H]3CO)O[C@H]2CO)[C@H](O)[C@@H](O)[C@@H]1N[C@H]1C=C(CO)[C@@H](O[C@H]2O[C@H](CO)[C@H](O[C@H]3O[C@H](C)[C@@H](N[C@H]4C=C(CO)[C@@H](O)[C@H](O)[C@H]4O)[C@H](O)[C@H]3O)[C@H](O)[C@H]2O)[C@H](O)[C@H]1O (stereo in doubt) [Trestatin A]
ED20, inhibition of hyperglycemia induced by cooked rice starch [1]: 1.0 mg/kg | Antimicrobial spectrum (E. coli CF41): > 100 µg/mL | Antimicrobial spectrum (E. coli NIHJ SMf): > 100 µg/mL | Antimicrobial spectrum [2]: > 100 µg/mL | Antimicrobial spectrum (Shigella flexneri): > 100 µg/mL | pKa' (Titration (in water)): 5.0 | Antimicrobial spectrum [3]: > 100 µg/mL | Plasma glucose, sucrose - load [4]: 84% of carbohydrate primed controls | Antimicrobial spectrum (Proteus rettgeri): > 100 µg/mL | Inhibitory activities [5]: 7.1 × 10^7 IU/g | Plasma glucose, starch - load ([6]; dose/kg 0.3 mg): 68% of carbohydrate primed controls | Plasma insulin, starch - load ([6]; dose/kg 0.3 mg): 66% of carbohydrate primed controls | Plasma glucose, starch - load ([6]; dose/kg 1.0 mg): 56% of carbohydrate primed controls | Plasma insulin, starch - load ([6]; dose/kg 1.0 mg): 42% of carbohydrate primed controls | Plasma glucose, starch - load ([6]; dose/kg 3.0 mg): 55% of carbohydrate primed controls | Plasma insulin, starch - load ([6]; dose/kg 3.0 mg): 42% of carbohydrate primed controls | Antimicrobial spectrum (E. coli K-12 ML1630): > 100 µg/mL | Antimicrobial spectrum [7]: > 100 µg/mL | Antimicrobial spectrum (E. coli NIHJ STf): > 100 µg/mL | Acute toxicity (rats): not observed | Antimicrobial spectrum [8]: > 100 µg/mL | Antimicrobial spectrum [9]: > 100 µg/mL | Antimicrobial spectrum [10]: > 100 µg/mL | Antimicrobial spectrum [11]: > 100 µg/mL | Solubility in acetone (Solubility in solvents; acetone): slightly soluble | Solubility in chloroform (Solubility in solvents; chloroform): insoluble | Solubility in dimethylsulfoxide (Solubility in solvents; dimethylsulfoxide): soluble | Solubility in ethanol (Solubility in solvents; ethanol): slightly soluble | Solubility in ethyl acetate (Solubility in solvents; ethyl acetate): insoluble | Solubility in water (Solubility in solvents; water): easily soluble | Antimicrobial spectrum (Candida albicans Yu1200): > 100 µg/mL | Antimicrobial spectrum [12]: > 100 µg/mL | Antimicrobial spectrum [13]: > 100 µg/mL | Antimicrobial spectrum [14]: > 100 µg/mL | Antimicrobial spectrum (Sarcina lutea ATCC 9341): > 100 µg/mL | Antimicrobial spectrum [15]: > 100 µg/mL | Antimicrobial spectrum (Citrobacter): > 100 µg/mL | Antimicrobial spectrum (E. coli NIHJ): > 100 µg/mL | Antimicrobial spectrum (E. coli CF17): > 100 µg/mL | Antimicrobial spectrum [16]: > 100 µg/mL | Antimicrobial spectrum [17]: > 100 µg/mL | ED20, inhibition of hyperglycemia induced by cooked rice starch [18]: 1.1 mg/kg | Antimicrobial spectrum [19]: > 100 µg/mL | Antimicrobial spectrum (Salmonella paratyphi B): > 100 µg/mL
